{"source": "the NIST ThermoML archive (doi:10.1016/j.jct.2009.06.021)", "experiment": "xn = mol fraction of the nth substance listed", "settings": "for surface tension liquid-gas: Maximal bubble pressure; for mass density: 101 kPa, Liquid, Vibrating tube method", "note": "Numbers after ± are expanded uncertainties.", "data": [{"smiles": "ClC(Cl)(Cl)Cl", "note": "[tetrachloromethane] + C[S+](C)[O-]", "values": [{"measurement": "surface tension liquid-gas", "setting": "298.15 K, x1 = 0.0994", "result": "38.6 ± 0.4", "unit": "mN/m"}, {"measurement": "surface tension liquid-gas", "setting": "298.15 K, x1 = 0.1969", "result": "34.6 ± 0.3", "unit": "mN/m"}, {"measurement": "surface tension liquid-gas", "setting": "298.15 K, x1 = 0.2513", "result": "32.9 ± 0.3", "unit": "mN/m"}, {"measurement": "surface tension liquid-gas", "setting": "298.15 K, x1 = 0.3299", "result": "30.8 ± 0.3", "unit": "mN/m"}, {"measurement": "surface tension liquid-gas", "setting": "298.15 K, x1 = 0.383", "result": "29.7 ± 0.3", "unit": "mN/m"}, {"measurement": "surface tension liquid-gas", "setting": "298.15 K, x1 = 0.5159", "result": "27.8 ± 0.3", "unit": "mN/m"}, {"measurement": "surface tension liquid-gas", "setting": "298.15 K, x1 = 0.6043", "result": "26.8 ± 0.3", "unit": "mN/m"}, {"measurement": "surface tension liquid-gas", "setting": "298.15 K, x1 = 0.6909", "result": "25.9 ± 0.3", "unit": "mN/m"}, {"measurement": "surface tension liquid-gas", "setting": "298.15 K, x1 = 0.7493", "result": "25.8 ± 0.3", "unit": "mN/m"}, {"measurement": "surface tension liquid-gas", "setting": "298.15 K, x1 = 0.8663", "result": "25.4 ± 0.3", "unit": "mN/m"}, {"measurement": "mass density", "setting": "298.15 K, x1 = 0.0674", "result": "1141.26 ± 0.37", "unit": "kg/m3"}, {"measurement": "mass density", "setting": "298.15 K, x1 = 0.101", "result": "1163.32 ± 0.39", "unit": "kg/m3"}, {"measurement": "mass density", "setting": "298.15 K, x1 = 0.1349", "result": "1185.11 ± 0.4", "unit": "kg/m3"}, {"measurement": "mass density", "setting": "298.15 K, x1 = 0.1643", "result": "1203.27 ± 0.42", "unit": "kg/m3"}, {"measurement": "mass density", "setting": "298.15 K, x1 = 0.2133", "result": "1232.98 ± 0.44", "unit": "kg/m3"}, {"measurement": "mass density", "setting": "298.15 K, x1 = 0.3045", "result": "1287.19 ± 0.48", "unit": "kg/m3"}, {"measurement": "mass density", "setting": "298.15 K, x1 = 0.4641", "result": "1370.58 ± 0.56", "unit": "kg/m3"}, {"measurement": "mass density", "setting": "298.15 K, x1 = 0.6022", "result": "1433.93 ± 0.61", "unit": "kg/m3"}, {"measurement": "mass density", "setting": "298.15 K, x1 = 0.7132", "result": "1481.07 ± 0.66", "unit": "kg/m3"}, {"measurement": "mass density", "setting": "298.15 K, x1 = 0.7604", "result": "1499.6 ± 0.68", "unit": "kg/m3"}, {"measurement": "mass density", "setting": "298.15 K, x1 = 0.8683", "result": "1539.93 ± 0.72", "unit": "kg/m3"}, {"measurement": "mass density", "setting": "298.15 K, x1 = 0.913", "result": "1555.64 ± 0.73", "unit": "kg/m3"}, {"measurement": "surface tension liquid-gas", "setting": "303.15 K, x1 = 0.0994", "result": "38 ± 0.4", "unit": "mN/m"}, {"measurement": "surface tension liquid-gas", "setting": "303.15 K, x1 = 0.1969", "result": "34.2 ± 0.3", "unit": "mN/m"}, {"measurement": "surface tension liquid-gas", "setting": "303.15 K, x1 = 0.2513", "result": "32.6 ± 0.3", "unit": "mN/m"}, {"measurement": "surface tension liquid-gas", "setting": "303.15 K, x1 = 0.3299", "result": "30.4 ± 0.3", "unit": "mN/m"}, {"measurement": "surface tension liquid-gas", "setting": "303.15 K, x1 = 0.383", "result": "29.2 ± 0.3", "unit": "mN/m"}, {"measurement": "surface tension liquid-gas", "setting": "303.15 K, x1 = 0.5159", "result": "27.1 ± 0.3", "unit": "mN/m"}, {"measurement": "surface tension liquid-gas", "setting": "303.15 K, x1 = 0.6043", "result": "26.2 ± 0.3", "unit": "mN/m"}, {"measurement": "surface tension liquid-gas", "setting": "303.15 K, x1 = 0.6909", "result": "25.3 ± 0.3", "unit": "mN/m"}, {"measurement": "surface tension liquid-gas", "setting": "303.15 K, x1 = 0.7493", "result": "25.1 ± 0.3", "unit": "mN/m"}, {"measurement": "surface tension liquid-gas", "setting": "303.15 K, x1 = 0.8663", "result": "24.6 ± 0.3", "unit": "mN/m"}, {"measurement": "mass density", "setting": "303.15 K, x1 = 0.0674", "result": "1135.93 ± 0.37", "unit": "kg/m3"}, {"measurement": "mass density", "setting": "303.15 K, x1 = 0.101", "result": "1157.83 ± 0.38", "unit": "kg/m3"}, {"measurement": "mass density", "setting": "303.15 K, x1 = 0.1349", "result": "1179.45 ± 0.4", "unit": "kg/m3"}, {"measurement": "mass density", "setting": "303.15 K, x1 = 0.1643", "result": "1197.47 ± 0.41", "unit": "kg/m3"}, {"measurement": "mass density", "setting": "303.15 K, x1 = 0.2133", "result": "1226.93 ± 0.43", "unit": "kg/m3"}, {"measurement": "mass density", "setting": "303.15 K, x1 = 0.3045", "result": "1280.68 ± 0.48", "unit": "kg/m3"}, {"measurement": "mass density", "setting": "303.15 K, x1 = 0.4641", "result": "1363.35 ± 0.55", "unit": "kg/m3"}, {"measurement": "mass density", "setting": "303.15 K, x1 = 0.6022", "result": "1425.99 ± 0.61", "unit": "kg/m3"}, {"measurement": "mass density", "setting": "303.15 K, x1 = 0.7132", "result": "1472.61 ± 0.65", "unit": "kg/m3"}, {"measurement": "mass density", "setting": "303.15 K, x1 = 0.7604", "result": "1490.94 ± 0.67", "unit": "kg/m3"}, {"measurement": "mass density", "setting": "303.15 K, x1 = 0.8683", "result": "1530.74 ± 0.71", "unit": "kg/m3"}, {"measurement": "mass density", "setting": "303.15 K, x1 = 0.913", "result": "1546.21 ± 0.72", "unit": "kg/m3"}, {"measurement": "surface tension liquid-gas", "setting": "308.15 K, x1 = 0.0994", "result": "37.4 ± 0.4", "unit": "mN/m"}, {"measurement": "surface tension liquid-gas", "setting": "308.15 K, x1 = 0.1969", "result": "33.4 ± 0.3", "unit": "mN/m"}, {"measurement": "surface tension liquid-gas", "setting": "308.15 K, x1 = 0.2513", "result": "31.8 ± 0.3", "unit": "mN/m"}, {"measurement": "surface tension liquid-gas", "setting": "308.15 K, x1 = 0.3299", "result": "29.8 ± 0.3", "unit": "mN/m"}, {"measurement": "surface tension liquid-gas", "setting": "308.15 K, x1 = 0.383", "result": "28.7 ± 0.3", "unit": "mN/m"}, {"measurement": "surface tension liquid-gas", "setting": "308.15 K, x1 = 0.5159", "result": "26.6 ± 0.3", "unit": "mN/m"}, {"measurement": "surface tension liquid-gas", "setting": "308.15 K, x1 = 0.6043", "result": "25.6 ± 0.3", "unit": "mN/m"}, {"measurement": "surface tension liquid-gas", "setting": "308.15 K, x1 = 0.6909", "result": "24.7 ± 0.3", "unit": "mN/m"}, {"measurement": "surface tension liquid-gas", "setting": "308.15 K, x1 = 0.7493", "result": "24.5 ± 0.3", "unit": "mN/m"}, {"measurement": "surface tension liquid-gas", "setting": "308.15 K, x1 = 0.8663", "result": "24.2 ± 0.3", "unit": "mN/m"}, {"measurement": "mass density", "setting": "308.15 K, x1 = 0.0674", "result": "1127.96 ± 0.35", "unit": "kg/m3"}, {"measurement": "mass density", "setting": "308.15 K, x1 = 0.101", "result": "1150.79 ± 0.38", "unit": "kg/m3"}, {"measurement": "mass density", "setting": "308.15 K, x1 = 0.1349", "result": "1172.11 ± 0.39", "unit": "kg/m3"}, {"measurement": "mass density", "setting": "308.15 K, x1 = 0.1643", "result": "1192.66 ± 0.41", "unit": "kg/m3"}, {"measurement": "mass density", "setting": "308.15 K, x1 = 0.2133", "result": "1222.1 ± 0.43", "unit": "kg/m3"}, {"measurement": "mass density", "setting": "308.15 K, x1 = 0.3045", "result": "1273.53 ± 0.47", "unit": "kg/m3"}, {"measurement": "mass density", "setting": "308.15 K, x1 = 0.4641", "result": "1355.26 ± 0.54", "unit": "kg/m3"}, {"measurement": "mass density", "setting": "308.15 K, x1 = 0.6022", "result": "1418.04 ± 0.6", "unit": "kg/m3"}, {"measurement": "mass density", "setting": "308.15 K, x1 = 0.7132", "result": "1464.13 ± 0.64", "unit": "kg/m3"}, {"measurement": "mass density", "setting": "308.15 K, x1 = 0.7604", "result": "1482.25 ± 0.66", "unit": "kg/m3"}, {"measurement": "mass density", "setting": "308.15 K, x1 = 0.8683", "result": "1521.44 ± 0.7", "unit": "kg/m3"}, {"measurement": "mass density", "setting": "308.15 K, x1 = 0.913", "result": "1536.79 ± 0.71", "unit": "kg/m3"}, {"measurement": "surface tension liquid-gas", "setting": "313.15 K, x1 = 0.0994", "result": "36.8 ± 0.4", "unit": "mN/m"}, {"measurement": "surface tension liquid-gas", "setting": "313.15 K, x1 = 0.1969", "result": "33 ± 1", "unit": "mN/m"}, {"measurement": "surface tension liquid-gas", "setting": "313.15 K, x1 = 0.2513", "result": "31.4 ± 0.3", "unit": "mN/m"}, {"measurement": "surface tension liquid-gas", "setting": "313.15 K, x1 = 0.3299", "result": "29.2 ± 0.3", "unit": "mN/m"}, {"measurement": "surface tension liquid-gas", "setting": "313.15 K, x1 = 0.383", "result": "28.1 ± 0.3", "unit": "mN/m"}, {"measurement": "surface tension liquid-gas", "setting": "313.15 K, x1 = 0.5159", "result": "26 ± 1", "unit": "mN/m"}, {"measurement": "surface tension liquid-gas", "setting": "313.15 K, x1 = 0.6043", "result": "25 ± 0.3", "unit": "mN/m"}, {"measurement": "surface tension liquid-gas", "setting": "313.15 K, x1 = 0.6909", "result": "24.3 ± 0.3", "unit": "mN/m"}, {"measurement": "surface tension liquid-gas", "setting": "313.15 K, x1 = 0.7493", "result": "23.9 ± 0.3", "unit": "mN/m"}, {"measurement": "surface tension liquid-gas", "setting": "313.15 K, x1 = 0.8663", "result": "23.7 ± 0.3", "unit": "mN/m"}, {"measurement": "mass density", "setting": "313.15 K, x1 = 0.0499", "result": "1116.12 ± 0.34", "unit": "kg/m3"}, {"measurement": "mass density", "setting": "313.15 K, x1 = 0.101", "result": "1146.87 ± 0.37", "unit": "kg/m3"}, {"measurement": "mass density", "setting": "313.15 K, x1 = 0.1349", "result": "1168.13 ± 0.39", "unit": "kg/m3"}, {"measurement": "mass density", "setting": "313.15 K, x1 = 0.1643", "result": "1185.85 ± 0.4", "unit": "kg/m3"}, {"measurement": "mass density", "setting": "313.15 K, x1 = 0.2133", "result": "1214.87 ± 0.42", "unit": "kg/m3"}, {"measurement": "mass density", "setting": "313.15 K, x1 = 0.3045", "result": "1267.49 ± 0.47", "unit": "kg/m3"}, {"measurement": "mass density", "setting": "313.15 K, x1 = 0.4641", "result": "1348.78 ± 0.54", "unit": "kg/m3"}, {"measurement": "mass density", "setting": "313.15 K, x1 = 0.6022", "result": "1410.05 ± 0.59", "unit": "kg/m3"}, {"measurement": "mass density", "setting": "313.15 K, x1 = 0.7132", "result": "1455.61 ± 0.63", "unit": "kg/m3"}, {"measurement": "mass density", "setting": "313.15 K, x1 = 0.7604", "result": "1473.5 ± 0.65", "unit": "kg/m3"}, {"measurement": "mass density", "setting": "313.15 K, x1 = 0.8683", "result": "1512.23 ± 0.69", "unit": "kg/m3"}, {"measurement": "mass density", "setting": "313.15 K, x1 = 0.913", "result": "1527.34 ± 0.7", "unit": "kg/m3"}]}]}
